Measured values as given in PubChem BioAssay (NCI).
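Cultured in 96-well plates, cells were exposed to test compound for 48 hours across five concentrations. Abbreviation: GI50, concentration required for 50% inhibition of growth. TGI: concentration producing complete growth inhibition.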

System: KM12 colon
Assay: NCI-60 cell line screen, 48 h

Compound `CCCCCCNc1nc(NCCCCCC)c2[nH]c(NCCCCCC)nc2n1` has a GI50 of 8.01 µM.

`CCCCCCNc1nc(NCCCCCC)c2[nH]c(NCCCCCC)nc2n1` and `CN(C)c1nc(=NCc2ccccn2)ss1` cannot be ordered by TGI: 21.1 µM for the first, greater than 10 µM for the second.

System: A549 NSCLC
Assay: NCI-60 cell line screen, 48 h

First: COc1cc(OC)c(C2c3cc4c(cc3OC(N3CCOCC3)C2C)OCO4)c(OC)c1 (stereo not drawn)
Second: COC(=O)c1cc2c3c(cc(NCCN)c2[nH]1)N(C(=O)c1cc2cc(OC)c(OC)c(OC)c2[nH]1)CC3CCl (stereo not drawn)
The TGI of the first is higher: greater than 100 µM for the first, 0.481 µM for the second.

First: CCN(CC)CCCNc1ccc([N+](=O)[O-])c2nc3ccc(OC)cc3c(NCCCN(CC)CC)c12
Second: CCCCCCNc1nc(NCCCCCC)c2[nH]c(NCCCCCC)nc2n1
The TGI of the first is 4-fold lower: 3.73 µM for the first, 14.8 µM for the second.

`CC1=C(C(=O)NNC(=O)CC#N)CC(C(=O)NNC(=O)CC#N)=C(C)N1` and `COC(=O)c1cc(C(=O)OC)cc(-c2ccc3c(c2)-c2nc4c(c(-c5ccc(OC)cc5)c2CC3)CCc2ccc(-c3cc(C(=O)OC)cc(C(=O)OC)c3)cc2-4)c1` cannot be ordered by TGI: greater than 100 µM for the first, greater than 100 µM for the second.

For `CN(C)c1nc(=NCc2ccccn2)ss1`, the TGI was greater than 10 µM.

`CCCCCCNc1nc(NCCCCCC)c2[nH]c(NCCCCCC)nc2n1` showed a GI50 of 1.58 µM.

System: K-562 leukemia
Assay: NCI-60 cell line screen, 48 h

`COc1cc(OC)c(C2c3cc4c(cc3OC(N3CCOCC3)C2C)OCO4)c(OC)c1` (stereo not drawn) and `COC(=O)c1cc2c3c(cc(NCCN)c2[nH]1)N(C(=O)c1cc2cc(OC)c(OC)c(OC)c2[nH]1)CC3CCl` (stereo not drawn) cannot be ordered by TGI: greater than 100 µM for the first, greater than 100 µM for the second.

Going from `CCN(CC)CCCNc1ccc([N+](=O)[O-])c2nc3ccc(OC)cc3c(NCCCN(CC)CC)c12` to `CCCCCCNc1nc(NCCCCCC)c2[nH]c(NCCCCCC)nc2n1`, the TGI rises from 3.75 µM to 25.1 µM (6.7-fold).

First: COC(=O)c1cc(C(=O)OC)cc(-c2ccc3c(c2)-c2nc4c(c(-c5ccc(OC)cc5)c2CC3)CCc2ccc(-c3cc(C(=O)OC)cc(C(=O)OC)c3)cc2-4)c1
Second: CN(C)c1nc(=NCc2ccccn2)ss1
The TGI of the first is lower: 1.06 µM for the first, greater than 9.63 µM for the second.

For `CCCCCCNc1nc(NCCCCCC)c2[nH]c(NCCCCCC)nc2n1`, the GI50 was 7.02 µM.

System: MALME-3M melanoma
Assay: NCI-60 cell line screen, 48 h

`CCN(CC)CCCNc1ccc([N+](=O)[O-])c2nc3ccc(OC)cc3c(NCCCN(CC)CC)c12` and `CCCCCCNc1nc(NCCCCCC)c2[nH]c(NCCCCCC)nc2n1` cannot be ordered by TGI: greater than 10 µM for the first, 16.1 µM for the second.

Compared with `COC(=O)c1cc(C(=O)OC)cc(-c2ccc3c(c2)-c2nc4c(c(-c5ccc(OC)cc5)c2CC3)CCc2ccc(-c3cc(C(=O)OC)cc(C(=O)OC)c3)cc2-4)c1`, `COC(=O)c1cc2c3c(cc(NCCN)c2[nH]1)N(C(=O)c1cc2cc(OC)c(OC)c(OC)c2[nH]1)CC3CCl` (stereo not drawn) is lower in TGI: greater than 100 µM for the first, 0.123 µM for the second.

Compound `CN(C)c1nc(=NCc2ccccn2)ss1` has a TGI greater than 8.91 µM.

`CCCCCCNc1nc(NCCCCCC)c2[nH]c(NCCCCCC)nc2n1` gave a GI50 of 4.5 µM.

System: SNB-75 CNS
Assay: NCI-60 cell line screen, 48 h

Compared with `COc1cc(OC)c(C2c3cc4c(cc3OC(N3CCOCC3)C2C)OCO4)c(OC)c1` (stereo not drawn), `COC(=O)c1cc(C(=O)OC)cc(-c2ccc3c(c2)-c2nc4c(c(-c5ccc(OC)cc5)c2CC3)CCc2ccc(-c3cc(C(=O)OC)cc(C(=O)OC)c3)cc2-4)c1` is higher in TGI: 93.2 µM for the first, greater than 100 µM for the second.

`CCN(CC)CCCNc1ccc([N+](=O)[O-])c2nc3ccc(OC)cc3c(NCCCN(CC)CC)c12` and `CCCCCCNc1nc(NCCCCCC)c2[nH]c(NCCCCCC)nc2n1` cannot be ordered by TGI: greater than 10 µM for the first, 20.7 µM for the second.

`CC1=C(C(=O)NNC(=O)CC#N)CC(C(=O)NNC(=O)CC#N)=C(C)N1` and `CN(C)c1nc(=NCc2ccccn2)ss1` cannot be ordered by TGI: greater than 100 µM for the first, greater than 10 µM for the second.

Compound `CCCCCCNc1nc(NCCCCCC)c2[nH]c(NCCCCCC)nc2n1` has a GI50 of 4.31 µM.

System: HS 578T breast
Assay: NCI-60 cell line screen, 48 h

`COc1cc(OC)c(C2c3cc4c(cc3OC(N3CCOCC3)C2C)OCO4)c(OC)c1` (stereo not drawn) and `CN(C)c1nc(=NCc2ccccn2)ss1` cannot be ordered by TGI: 20.5 µM for the first, greater than 10 µM for the second.

Compound `CCCCCCNc1nc(NCCCCCC)c2[nH]c(NCCCCCC)nc2n1` has a TGI of 9.84 µM.

For `CCCCCCNc1nc(NCCCCCC)c2[nH]c(NCCCCCC)nc2n1`, the GI50 was 1.97 µM.

System: OVCAR-4 ovarian
Assay: NCI-60 cell line screen, 48 h

`CC1=C(C(=O)NNC(=O)CC#N)CC(C(=O)NNC(=O)CC#N)=C(C)N1` and `COC(=O)c1cc(C(=O)OC)cc(-c2ccc3c(c2)-c2nc4c(c(-c5ccc(OC)cc5)c2CC3)CCc2ccc(-c3cc(C(=O)OC)cc(C(=O)OC)c3)cc2-4)c1` cannot be ordered by TGI: greater than 100 µM for the first, greater than 100 µM for the second.

Going from `CCCCCCNc1nc(NCCCCCC)c2[nH]c(NCCCCCC)nc2n1` to `COC(=O)c1cc2c3c(cc(NCCN)c2[nH]1)N(C(=O)c1cc2cc(OC)c(OC)c(OC)c2[nH]1)CC3CCl` (stereo not drawn), the TGI falls from 21.2 µM to 0.31 µM (68-fold).

`CN(C)c1nc(=NCc2ccccn2)ss1` was tested, and the TGI was greater than 10 µM.

For `CCCCCCNc1nc(NCCCCCC)c2[nH]c(NCCCCCC)nc2n1`, the GI50 was 6.97 µM.

System: HCT-15 colon
Assay: NCI-60 cell line screen, 48 h

Compared with `COc1cc(OC)c(C2c3cc4c(cc3OC(N3CCOCC3)C2C)OCO4)c(OC)c1` (stereo not drawn), `COC(=O)c1cc2c3c(cc(NCCN)c2[nH]1)N(C(=O)c1cc2cc(OC)c(OC)c(OC)c2[nH]1)CC3CCl` (stereo not drawn) is lower in TGI: greater than 100 µM for the first, 1.42 µM for the second.

Going from `CCN(CC)CCCNc1ccc([N+](=O)[O-])c2nc3ccc(OC)cc3c(NCCCN(CC)CC)c12` to `CCCCCCNc1nc(NCCCCCC)c2[nH]c(NCCCCCC)nc2n1`, the TGI rises from 2.79 µM to greater than 51.7 µM.

`CC1=C(C(=O)NNC(=O)CC#N)CC(C(=O)NNC(=O)CC#N)=C(C)N1` and `COC(=O)c1cc(C(=O)OC)cc(-c2ccc3c(c2)-c2nc4c(c(-c5ccc(OC)cc5)c2CC3)CCc2ccc(-c3cc(C(=O)OC)cc(C(=O)OC)c3)cc2-4)c1` cannot be ordered by TGI: greater than 100 µM for the first, greater than 100 µM for the second.

`CCCCCCNc1nc(NCCCCCC)c2[nH]c(NCCCCCC)nc2n1` was tested, and the GI50 was 10.7 µM.
